The nature of data set [1]: Absorption wavelength of the synthesized dye (HP 8452 diode array spectrophotometer). It is filed as physicochemical. As for the experimental part:
(§1) First, the experimental apparatuses, analytical instruments and reagents used in the examples and experiments are described. Bruker's Avance 300 and 400 were used for FT-NMR spectroscopy, and the Voyager MALDI-TOF DE mass spectrometer was used for MALDI-TOF M/S. Absorption wavelength of the synthesized dye and the absorbance at maximum absorption wavelength were measured using Hewlett-Packard's HP 8452 diode array spectrophotometer. Emission wavelength and light emission at maximum emission wavelength were measured using Perkin Elmer's LS-55.

A short description of data set [2]: Emission wavelength at maximum emission (Perkin Elmer LS-55). The data set is classed as physicochemical. As for the experimental part:
as §1

Data set [3] concerns marker proteins (Amersham LMW calibration kit: phosphorylase b, albumin, ovalbumin, carbonic anhydrase, trypsin inhibitor, α-lactalbumin). The data set can be described thus: Staining of proteins, separated by gel electrophoresis, fluorescence image. As to conditions: 0.1M phosphate buffer pH 9.0, room temperature, 1 hour; electrophoresis 125 V, 2 hours. As for the experimental part:
Gel electrophoresis was carried out using Bio-Rad's PowerPac Basic Power Supply (Catalog No. 164-5050) coupled to the Amersham Biosciences's SE260 mini-vertical gel electrophoresis unit. Lonza's PAGEr Gold Precast Gels (polyacrylamide gels for protein electrophoresis, 10-20% Tris-glycine gels, Catalog No. 59506) were used as gels. Running and loading buffers for SDS-PAGE were prepared as follows prior to use.
Size markers commercially available from GE Healthcare and Takara were used as proteins. Perkin Elmer's Geliance 600 was used for observation of labeled biomolecules and measurement of fluorescence intensity. Geliance UV Epi (Catalog No. L7110026) and Geliance Blue Epi (Catalog No. L7110027) were used as light sources. Measurement was carried out using UV filter, Geliance short-pass filter (500-600 nm), Geliance long-pass filter (580-660 nm) and Geliance blue light filter (550-600 nm) while changing the filters in accordance with fluorescence wavelengths.
Each vial of one pack of Amersham™ LMW calibration kit (17-0446-01) for SDS electrophoresis commercially available from GE Healthcare contains 576 μg of six marker proteins, which are phosphorylase b (97 kD, 67 μg), albumin (66 kD, 83 μg), ovalbumin (45 kD, 147 μg), carbonic anhydrase (30 kD, 83 μg), trypsin inhibitor (20.1 kD, 80 μg) and α-lactalbumin (14.4 kD, 116 μg). […]

On to `C=CS(=O)(=O)CCNC(=O)CCCCCN1/C(=C/C=C/C2=[N+](CC)c3ccc4c(S(=O)(=O)[O-])cc(S(=O)(=O)O)cc4c3C2(C)C)C(C)(C)c2c1ccc1c(S(=O)(=O)O)cc(S(=O)(=O)O)cc21` [Compound 1-3], for which the “λabs (water)” value in data set [1] is reported as 579 nm. The “λfl (water)” value in data set [2] is 594 nm.
On the same counts, the results for `CC[N+]1=C(/C=C/C=C2/N(CCCCCC(=O)O)c3ccc4c(S(=O)(=O)O)cc(S(=O)(=O)O)cc4c3C2(C)C)C(C)(C)c2c1ccc1c(S(=O)(=O)[O-])cc(S(=O)(=O)O)cc21` are 579 nm and 594 nm.
With `CC[N+]1=C(/C=C/C=C/C=C2/N(CCCCCCCC(=O)O)c3ccc4c(S(=O)(=O)O)cc(S(=O)(=O)O)cc4c3C2(C)C)C(C)(C)c2c1ccc1c(S(=O)(=O)O)cc(S(=O)(=O)[O-])cc21` [Compound 10-5], the “λabs (water)” value in data set [1] came to 675 nm. Also, the “λfl (water)” value in data set [2] is 704 nm.
`C=CS(=O)(=O)CCNC(=O)CCCCCN1/C(=C/C=C/C=C/C2=[N+](CC)c3ccc4ccccc4c3C2(C)C)C(C)(C)c2c1ccc1ccccc21` [Compound 1-4]: in data set [1], the “λabs (methanol)” value turned out to be 680 nm. The “λfl (methanol)” value in data set [2] was found to be 710 nm.
On the same counts, the results for `CC[N+]1=C(/C=C/C=C/C=C2/N(CCCCCC(=O)O)c3ccc4ccccc4c3C2(C)C)C(C)(C)c2c1ccc1ccccc21` [Compound 10-4] are 697 nm and 713 nm.
Turning to `C=CS(=O)(=O)CCNC(=O)CCCCCN1/C(=C/C=C/C=C/C=C/C2=[N+](CC)c3ccc4c(S(=O)(=O)[O-])cc(S(=O)(=O)O)cc4c3C2(C)C)C(C)(C)c2c1ccc1c(S(=O)(=O)O)cc(S(=O)(=O)O)cc21` [Compound 1-2], in data set [1], the “λabs (water)” value is on record as 777 nm. Moreover, the “λfl (water)” value in data set [2] stood at 803 nm. For the same compound, the “visibility of stained proteins after gel electrophoresis (FIG. 1)” value in data set [3] was “discernible with naked eyes”.
For the compound `CC[N+]1=C(/C=C/C=C/C=C2/N(CCCCCC(=O)O)c3ccc4c(S(=O)(=O)O)cc(S(=O)(=O)O)cc4c3C2(C)C)C(C)(C)c2c1ccc1c(S(=O)(=O)[O-])cc(S(=O)(=O)O)cc21` [Compound 10-1], the “λabs (water)” value in data set [1] worked out at 675 nm. In data set [2], the “λfl (water)” value was 695 nm.
For `C=CS(=O)(=O)CCNC(=O)CCCCCN1/C(=C/C=C/C=C/C2=[N+](CC)c3ccc4c(S(=O)(=O)[O-])cc(S(=O)(=O)O)cc4c3C2(C)C)C(C)(C)c2c1ccc1c(S(=O)(=O)O)cc(S(=O)(=O)O)cc21` [Compound 1-1], the “λabs (water)” value in data set [1] is 675 nm. Besides, in data set [2], the “λfl (water)” value was 695 nm. Besides, the “visibility of stained proteins after gel electrophoresis (FIG. 1)” value in data set [3] was “discernible with naked eyes”.
As to `C=CS(=O)(=O)CCNC(=O)CCCCCCCN1/C(=C/C=C/C=C/C2=[N+](CC)c3ccc4c(S(=O)(=O)O)cc(S(=O)(=O)[O-])cc4c3C2(C)C)C(C)(C)c2c1ccc1c(S(=O)(=O)O)cc(S(=O)(=O)O)cc21` [Compound 1-5], the “λabs (water)” value in data set [1] is 675 nm. In addition, the “λfl (water)” value in data set [2] is reported as 704 nm.
For the compound `CC[N+]1=C(/C=C/C=C/C=C/C=C2/N(CCCCCC(=O)O)c3ccc4c(S(=O)(=O)O)cc(S(=O)(=O)O)cc4c3C2(C)C)C(C)(C)c2c1ccc1c(S(=O)(=O)[O-])cc(S(=O)(=O)O)cc21` [Compound 10-3], the “λabs (water)” value in data set [1] came to 777 nm. Also, in data set [2], the “λfl (water)” value is 803 nm.

Source of the values: US20130102752A1, “BENZINDOCYANINE COMPOUND FOR LABELING SUBSTANCE, INTERMEDIATE THEREOF, AND METHOD FOR PREPARING THE SAME” (DKC CORPORATION, priority 2010, published 2013).
